Source: US20040176431A1, “Antiproliferative 2-(sulfo-phenyl)-aminothiazole derivatives and pharmaceutical compositions, and methods for their use” (Pfizer, Inc., priority 2003, published 2004)

Molecular target: T1, CDK4/cyclin D3 (Homo sapiens, UniProt P11802)
T1 construct: made in house; host or cells: insect cells (baculovirus co-infection)
Assay: Inhibition of CDK4/Cyclin D retinoblastoma kinase activity
Format: biochemical
Conditions: for inhibition at 0.1 µM: read-out: % Inhib CDK4/D @ 0.1 μM; for inhibition at 1 µM: read-out: % Inhib CDK4/D @ 1 μM; for inhibition at 0.03 µM: read-out: % Inhib CDK4/D @ 0.03
Protocol: Cyclin-dependent kinase activity was measured by quantifying the enzyme-catalyzed, time-dependent incorporation of radioactive phosphate from [^32P]ATP or [^33P]ATP into a protein substrate. Unless noted otherwise, assays were performed in 96-well plates in a total volume of 50 μL, in the presence of 10 mM HEPES (N-[2-hydroxyethyl]piperazine-N′-[2-ethanesulfonic acid]) (pH 7.4), 10 mM MgCl2, 25 μM adenosine triphosphate (ATP), 1 mg/mL ovalbumin, 5 μg/mL leupeptin, 1 mM dithiothreitol, 10 mM β-glycerophosphate, 0.1 mM sodium vanadate, 1 mM sodium fluoride, 2.5 mM ethylene glycol-bis(β-aminoethyl ether)-N,N,N′N′-tetraacetic acid (EGTA), 2% (v/v) dimethylsulfoxide, and 0.03-0.4 μCi [^32/33P]ATP per reaction. Reactions were initiated with enzyme, incubated at 30° C., and terminated after 20 minutes by the addition of ethylenediaminetetraacetic acid (EDTA) to 250 mM. The phosphorylated substrate was then captured on a nitrocellulose or phosphocellulose membrane using a 96-well filtration manifold, and unincorporated radioactivity was removed by repeated washing with 0.85% phosphoric acid. Radioactivity was quantified by exposing the dried membranes to a phosphorimager.
Inhibition was measured relative to control wells that contained all reaction components including 2% (v/v) DMSO but no compound, after subtraction of background radioactivity measured in the absence of enzyme. Apparent Ki values of discrete compounds were measured by assaying enzyme activity in the presence of different inhibitor compound concentrations and subtracting the background radioactivity measured in the absence of enzyme. The kinetic parameters (kcat, Km for ATP) were measured for each enzyme under the usual assay conditions by determining the dependence of initial rates on ATP concentration. Inhibition data were fit to an equation for competitive inhibition using Kaleidagraph (Synergy Software), or were fit to an equation for competitive tight-binding inhibition using the software KineTic (BioKin, Ltd.).
A complex of human CDK4 and genetically truncated (1-264) cyclin D3 was purified using traditional biochemical chromatographic techniques from insect cells that had been co-infected with the corresponding baculovirus expression vectors (see e.g., Meijer and Kim, “Chemical Inhibitors of Cyclin-Dependent Kinases,” Methods in Enzymol., 283, 113-128 (1997)). The enzyme complex (5 nM) was assayed with 0.3-0.5 μg of purified recombinant retinoblastoma protein fragment (Rb) as a substrate. The engineered Rb fragment (residues 386-928 of the native retinoblastoma protein; 62.3 kDa) contains the majority of the phosphorylation sites found in the native 106-kDa protein, as well as a tag of six histidine residues for ease of purification. Phosphorylated Rb substrate was captured by microfiltration on a nitrocellulose membrane and quantified using a phosphorimager as described above. For measurement of tight-binding inhibitors, the assay duration was extended to 60 minutes, during which the time-dependence of product formation was linear and initial rate conditions were met.

[1] = test compound at 1 μM (head line shifted: 'mM' printed beside 'Structure')
[2] = test compound at 0.03 (unit cell empty, head line shifted; μM)

T1 sequence (P11802 whole entry): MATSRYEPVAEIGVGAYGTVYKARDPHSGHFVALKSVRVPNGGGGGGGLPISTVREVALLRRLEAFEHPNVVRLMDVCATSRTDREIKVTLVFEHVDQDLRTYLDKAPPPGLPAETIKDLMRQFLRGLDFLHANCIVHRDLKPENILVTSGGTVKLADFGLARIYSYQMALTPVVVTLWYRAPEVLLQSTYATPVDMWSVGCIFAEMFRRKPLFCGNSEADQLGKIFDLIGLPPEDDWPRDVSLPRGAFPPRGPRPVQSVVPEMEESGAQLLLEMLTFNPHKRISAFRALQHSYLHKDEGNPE
T1 sequence (P30281 1-264 partner limits assumed): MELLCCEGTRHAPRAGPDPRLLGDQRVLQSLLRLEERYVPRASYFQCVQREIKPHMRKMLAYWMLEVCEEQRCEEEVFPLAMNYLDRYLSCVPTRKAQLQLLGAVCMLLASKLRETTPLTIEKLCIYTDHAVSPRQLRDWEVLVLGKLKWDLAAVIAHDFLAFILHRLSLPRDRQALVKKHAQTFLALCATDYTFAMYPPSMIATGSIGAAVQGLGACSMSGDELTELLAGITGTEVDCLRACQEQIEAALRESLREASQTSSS

SMILES | inhibition at 0.1 µM (test compound at 0.1 μM) [%] | inhibition at 1 µM [1] [%] | inhibition at 0.03 µM [2] [%] | % Inhib CDK4/D @ 0.1 μM (test compound at 0.1 μM, 0.1 µM) [%] | % Inhib CDK4/D @ 1 μM (test compound at 1 μM (head line shifted: 'mM' printed beside 'Structure'), 1 µM) [%] | % Inhib CDK4/D @ 0.03 [2] [%]
CCN(CC)C(=O)CSc1ccc(Nc2nc(N)c(C(=O)c3c(Cl)cccc3Cl)s2)cc1 [DD(1)] | -19 | 46.9 | -34 | – | – | –
Cc1noc(C)c1CSc1ccc(Nc2nc(N)c(C(=O)c3c(Cl)cccc3Cl)s2)cc1 [DD(2)] | 19 | 74 | 37 | – | – | –
CC(CSc1ccc(Nc2nc(N)c(C(=O)c3c(Cl)cccc3Cl)s2)cc1)CN(C)C (stereo not drawn) [DD(3)] | 0.2 | 43.6 | 8.1 | – | – | –
COC(=O)/C=C/CSc1ccc(Nc2nc(N)c(C(=O)c3c(Cl)cccc3Cl)s2)cc1 [DD(4)] | 11 | 49.1 | 5.4 | – | – | –
Nc1nc(Nc2ccc(SCCCO)cc2)sc1C(=O)c1c(Cl)cccc1Cl [DD(5)] | 40 | 85.2 | 21 | – | – | –
C=CCCSc1ccc(Nc2nc(N)c(C(=O)c3c(Cl)cccc3Cl)s2)cc1 [DD(6)] | 20 | 48 | 22 | – | – | –
Nc1nc(Nc2ccc(SCCN3CCCC3)cc2)sc1C(=O)c1c(Cl)cccc1Cl [DD(7)] | 31 | 55 | 11 | – | – | –
Nc1nc(Nc2ccc(SCc3ncon3)cc2)sc1C(=O)c1c(Cl)cccc1Cl [DD(8)] | 43 | 82.1 | 16 | – | – | –
Nc1nc(Nc2ccc(SCC3CNC(=O)O3)cc2)sc1C(=O)c1c(Cl)cccc1Cl (stereo not drawn) [DD(9)] | -14 | 40.3 | -28 | – | – | –
CN(C)CCCSc1ccc(Nc2nc(N)c(C(=O)c3c(Cl)cccc3Cl)s2)cc1 [DD(10)] | 6.6 | 54.5 | 2.6 | – | – | –
Nc1nc(Nc2ccc(SCCN3CCCCC3)cc2)sc1C(=O)c1c(Cl)cccc1Cl [DD(11)] | 28 | 78.1 | 4.2 | – | – | –
Nc1nc(Nc2ccc(SCC3CO3)cc2)sc1C(=O)c1c(Cl)cccc1Cl (stereo not drawn) [DD(12)] | 19 | 72 | 3.9 | – | – | –
CC(C)CCSc1ccc(Nc2nc(N)c(C(=O)c3c(Cl)cccc3Cl)s2)cc1 [DD(13)] | 4.7 | 35.3 | 0.6 | – | – | –
COCCSc1ccc(Nc2nc(N)c(C(=O)c3c(Cl)cccc3Cl)s2)cc1 [DD(14)] | 41 | 80 | 18 | – | – | –
Nc1nc(Nc2ccc(SCC(=O)Nc3ccccc3)cc2)sc1C(=O)c1c(Cl)cccc1Cl [DD(15)] | 53 | 82 | 38 | – | – | –
Nc1nc(Nc2ccc(SCC3CC3)cc2)sc1C(=O)c1c(Cl)cccc1Cl [DD(16)] | -7 | 56.2 | -9.4 | – | – | –
COc1cccc(CSc2ccc(Nc3nc(N)c(C(=O)c4c(Cl)cccc4Cl)s3)cc2)c1 [DD(17)] | -3 | 28.3 | -9.5 | – | – | –
Nc1nc(Nc2ccc(SCC3CCCO3)cc2)sc1C(=O)c1c(Cl)cccc1Cl (stereo not drawn) [DD(18)] | 9.9 | 70.6 | 10 | – | – | –

Now from value to compound:

inhibition at 0.1 µM (test compound at 0.1 μM) [%] | inhibition at 1 µM [1] [%] | inhibition at 0.03 µM [2] [%] | % Inhib CDK4/D @ 0.1 μM (test compound at 0.1 μM, 0.1 µM) [%] | % Inhib CDK4/D @ 1 μM (test compound at 1 μM (head line shifted: 'mM' printed beside 'Structure'), 1 µM) [%] | % Inhib CDK4/D @ 0.03 [2] [%] | SMILES
19 | 82.9 | -3 | – | – | – | CN1CCCC1CCSc1ccc(Nc2nc(N)c(C(=O)c3c(Cl)cccc3Cl)s2)cc1 (stereo not drawn) [DD(19)]
6.8 | 68.2 | 4.2 | – | – | – | CC1(CSc2ccc(Nc3nc(N)c(C(=O)c4c(Cl)cccc4Cl)s3)cc2)CO1 (stereo not drawn) [DD(20)]
67 | 85.5 | 50 | – | – | – | NC(=O)CSc1ccc(Nc2nc(N)c(C(=O)c3c(Cl)cccc3Cl)s2)cc1 [DD(21)]
9.1 | 56.2 | 8.1 | – | – | – | CCOC(=O)CCSc1ccc(Nc2nc(N)c(C(=O)c3c(Cl)cccc3Cl)s2)cc1 [DD(22)]
37 | 72.1 | 19 | – | – | – | CC(C)OC(=O)CSc1ccc(Nc2nc(N)c(C(=O)c3c(Cl)cccc3Cl)s2)cc1 [DD(23)]
-3 | 42.5 | -17 | – | – | – | CC(C)=CCSc1ccc(Nc2nc(N)c(C(=O)c3c(Cl)cccc3Cl)s2)cc1 [DD(24)]
0.4 | 65.5 | -10 | – | – | – | CCCSc1ccc(Nc2nc(N)c(C(=O)c3c(Cl)cccc3Cl)s2)cc1 [DD(25)]
65 | 87.5 | 9 | – | – | – | COC(=O)CSc1ccc(Nc2nc(N)c(C(=O)c3c(Cl)cccc3Cl)s2)cc1 [DD(26)]
10 | 58.7 | -2.6 | – | – | – | CN1CCCC(CSc2ccc(Nc3nc(N)c(C(=O)c4c(Cl)cccc4Cl)s3)cc2)C1 (stereo not drawn) [DD(27)]
51 | 86.8 | 19 | – | – | – | NC(=O)CCSc1ccc(Nc2nc(N)c(C(=O)c3c(Cl)cccc3Cl)s2)cc1 [DD(28)]
– | – | – | 50 | 87.2 | 24 | NC(=O)CCSc1ccc(Nc2nc(N)c(C(=O)c3c(Cl)cccc3Cl)s2)cc1 [DD(29)]
13 | 32.3 | 3.1 | – | – | – | CC(C)CCCSc1ccc(Nc2nc(N)c(C(=O)c3c(Cl)cccc3Cl)s2)cc1 [DD(30)]
30 | 59.7 | 15 | – | – | – | CC(C)CCOC(=O)CSc1ccc(Nc2nc(N)c(C(=O)c3c(Cl)cccc3Cl)s2)cc1 [DD(31)]
14 | 61.3 | 5.5 | – | – | – | CN(C)CCSc1ccc(Nc2nc(N)c(C(=O)c3c(Cl)cccc3Cl)s2)cc1 [DD(32)]
21 | 64.7 | 8.1 | – | – | – | CCOCCSc1ccc(Nc2nc(N)c(C(=O)c3c(Cl)cccc3Cl)s2)cc1 [DD(33)]
52 | 89.3 | 32 | – | – | – | Nc1nc(Nc2ccc(SCC(O)CO)cc2)sc1C(=O)c1c(Cl)cccc1Cl (stereo not drawn) [DD(34)]
42 | 76.8 | 12 | – | – | – | Nc1nc(Nc2ccc(SCc3ccncc3)cc2)sc1C(=O)c1c(Cl)cccc1Cl [DD(35)]
18 | 49.6 | 9 | – | – | – | CCC(CC)CSc1ccc(Nc2nc(N)c(C(=O)c3c(Cl)cccc3Cl)s2)cc1 [DD(36)]
30 | 74.3 | 13 | – | – | – | CC(=O)OCCSc1ccc(Nc2nc(N)c(C(=O)c3c(Cl)cccc3Cl)s2)cc1 [DD(37)]
32 | 57.8 | 6.5 | – | – | – | CC(C)OC(=O)CCSc1ccc(Nc2nc(N)c(C(=O)c3c(Cl)cccc3Cl)s2)cc1 [DD(38)]
18 | 68.4 | 0.2 | – | – | – | Nc1nc(Nc2ccc(SCCN3CCOCC3)cc2)sc1C(=O)c1c(Cl)cccc1Cl [DD(39)]
23 | 50.3 | -1.2 | – | – | – | CC(C)(CO)CSc1ccc(Nc2nc(N)c(C(=O)c3c(Cl)cccc3Cl)s2)cc1 [DD(40)]
33 | 70.3 | 28 | – | – | – | CCN(CC)C(=O)CSc1cccc(Nc2nc(N)c(C(=O)c3c(Cl)cccc3Cl)s2)c1 [DD(41)]
41 | 63.7 | 29 | – | – | – | Cc1noc(C)c1CSc1cccc(Nc2nc(N)c(C(=O)c3c(Cl)cccc3Cl)s2)c1 [DD(42)]
16 | 71.3 | 25 | – | – | – | CC(CSc1cccc(Nc2nc(N)c(C(=O)c3c(Cl)cccc3Cl)s2)c1)CN(C)C (stereo not drawn) [DD(43)]
